{"source": "patent US11576979B2", "about": "“Pyrrolobenzodiazepine prodrugs and antibody conjugates thereof” (GENENTECH, INC., priority 2016, dated 2023)", "key": {"[1]": {"system": "double strand DNA Oligos 1 and 2", "assay": "DNA oligo binding, LC/MS/UV", "conditions": "100 uM compound, 100 uM DNA, 1 hour, 37 C", "procedure": "For DNA binding determination, the compounds were incubated at 100 μM with 100 μM double strand DNA Oligos 1 and 2 for 1 hour in 10 mM Bis-Tris, pH 7.1 at 37° C. The single strand DNA Oligos (5′-TATAGAATCTATA-3′ and 3′-ATATCTTAGATAT-5′) were synthesized at Genentech. The samples were analyzed by LC/MS/UV (210-450 nm) on Sciex TripleTOF 5600 on a Hypersil Gold C18 column (100×2.1, 1.9 Thermo Scientific). The column was eluted at 0.4 mL/min by a gradient of buffer A (50 mM hexafluoro-isopropanol and 15 mM diisopropylethylamine) to buffer B (50% A and 50% of 1:1 methanol:acetonitrile), 5% 0-0.5 min, 5-25% B 0.5-25 min, 25-95% B 25-40 min, and to 95% B 40-42 min. The % remaining was an average of the starting DNA oligos remaining in incubations (n=2). The products were characterized by LC/MS in a negative ESI ion mode."}, "[2]": {"system": "HCC1569 X2", "assay": "Standard cell panel (Table 7B)", "format": "cell-based", "conditions": "Homo sapiens", "from_the_text": "(§1) PBD dimer control 1 and PBD dimer control 2 were further evaluated in standard cell panels against a number of cell lines."}, "[3]": {"system": "KPL-4", "assay": "Standard cell panel (Table 7B)", "format": "cell-based", "conditions": "KPL4", "from_the_text": "as §1"}, "[4]": {"system": "MES-SA/Dx5", "assay": "Standard cell panel (Table 7B)", "format": "cell-based", "conditions": "Homo sapiens", "from_the_text": "as §1"}, "[5]": {"system": "MES-SA", "assay": "Standard cell panel (Table 7B)", "format": "cell-based", "conditions": "Homo sapiens", "from_the_text": "as §1"}, "[6]": {"system": "HCC1937", "assay": "Standard cell panel (Table 7B)", "format": "cell-based", "conditions": "Homo sapiens", "from_the_text": "as §1"}, "[7]": {"system": "BJAB", "assay": "Standard cell panel (Table 7B)", "format": "cell-based", "conditions": "Homo sapiens", "from_the_text": "as §1"}, "[8]": {"system": "SW 900", "assay": "Standard cell panel (Table 7B)", "format": "cell-based", "conditions": "Homo sapiens, SW900", "from_the_text": "as §1"}, "[9]": {"system": "T-47D", "assay": "Standard cell panel (Table 7B)", "format": "cell-based", "conditions": "Homo sapiens, T47D", "from_the_text": "as §1"}, "[10]": {"system": "NCI-H1781", "assay": "Standard cell panel (Table 7B)", "format": "cell-based", "from_the_text": "as §1"}, "[11]": {"system": "KPL-4 Cell line", "assay": "Cell viability, DTD-activated quinone prodrugs (Example 15)", "format": "cell-based", "conditions": "KPL4, read-out: IC50 Potency (nM)", "procedure": "(§2) The toxicity of PBD dimer diaphorase prodrug 1, PBD monomer diaphorase prodrug 2, PBD dimer control 1 and PBD monomer control 1 were evaluated against KPL-4 and WSU cell lines for cell viability. The KPL-4 cell line is was a high DTD cell line characterized by NQO1 nRPKM of 839 and the WSU cell line was a low DTD cell line characterized by a NQO1 nRPKM of 1.36. The IC50 ratios are based on the prodrug IC50 value relative to the PBD dimer control."}, "[12]": {"system": "WSU Cell line", "assay": "Cell viability, DTD-activated quinone prodrugs (Example 15)", "format": "cell-based", "conditions": "read-out: IC50 Potency (nM)", "procedure": "as §2"}, "[13]": {"system": "SK-BR-3", "assay": "CellTiter-Glo toxicity, 3 days (Example 7)", "format": "cell-based", "conditions": "Homo sapiens, SK-BR-3, 72 h, read-out: SK-BR-3 IC50 (nM)", "procedure": "The toxicity of PBD monomer disulfide prodrugs 1 to 4, PBD dimer disulfide prodrugs 1 and 4, PBD monomer control 1 and PBD dimer control 1 were evaluated against SK-BR-3 cell cultures. […] The HER2-positive breast cancer cell line, SK-BR-3, was obtained internally at Genentech after having been verified by sequence analysis. The cells were grown at 37 Celsius in DMEM+10% FBS supplemented with 2 mM L-glutamine for the duration of this assay. On the first day of the experiment, designated “Day −1”, SK-BR-3 cells were harvested from tissue culture flasks, counted, and then seeded into 96-well plates at a concentration of 7,500 cells per well. The next day, designated “Day 0”, cell culture media was removed from the cells and replaced with 100 uL of fresh media containing a serial dilution (1:3) of the compounds in Table 5 below. The plates were then returned to the 37 Celsius incubator and allowed to incubate for 3 days. On “Day 3” of the assay, the plates were removed from the incubator and allowed to equilibrate to room temperature before adding 100 uL of room-temperature CellTiter-Glo reagent (Promega). The plates were then agitated at 300 rpm for 10 minutes. The luminescence signal generated from this reaction was recorded on an Envision plate reader (Perkin-Elmer). The data were arranged in Excel (Microsoft) and graphed in Kaleidagraph (Synergy Software)."}, "[14]": {"system": "Igrov-1", "assay": "CellTiter-Glo toxicity, 4 days (Example 9)", "format": "cell-based", "conditions": "Homo sapiens, IGROV-1, 96 h, 4 days of drug incubation; Table 7A", "in_short": "(§3)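 Cells were seeded in 384-well plates, dosed 24 h later and incubated with drug for 4 days. Viability was read as ATP luminescence by CellTiter-Glo and normalised to untreated controls. IC50 is the concentration giving 50% of maximum cell killing.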"}, "[15]": {"system": "UACC-257", "assay": "CellTiter-Glo toxicity, 4 days (Example 9)", "format": "cell-based", "conditions": "Homo sapiens, UACC-257, 96 h, 4 days of drug incubation; Table 7A", "in_short": "as §3"}, "[16]": {"system": "A2058", "assay": "Standard cell panel (Table 7B)", "format": "cell-based", "conditions": "Homo sapiens", "from_the_text": "as §1"}, "[17]": {"system": "DLD-1", "assay": "Standard cell panel (Table 7B)", "format": "cell-based", "conditions": "Homo sapiens", "from_the_text": "as §1"}, "[18]": {"system": "HCT 116", "assay": "Standard cell panel (Table 7B)", "format": "cell-based", "conditions": "Homo sapiens", "from_the_text": "as §1"}, "[19]": {"system": "HL-60", "assay": "Standard cell panel (Table 7B)", "format": "cell-based", "conditions": "Homo sapiens", "from_the_text": "as §1"}, "[20]": {"system": "MDA-MB-231", "assay": "Standard cell panel (Table 7B)", "format": "cell-based", "conditions": "Homo sapiens", "from_the_text": "as §1"}, "[21]": {"system": "BJAB/Pgp", "assay": "Standard cell panel (Table 7B)", "format": "cell-based", "conditions": "Homo sapiens", "from_the_text": "as §1"}}, "data": [{"compound": "C=C1C[C@H]2C=Nc3cc(OCCCCCOc4cc5c(cc4OC)C(=O)N4CC(=C)C[C@H]4C=N5)c(OC)cc3C(=O)N2C1", "note": "[PBD dimer control 1]", "values": [{"measurement": "% DNA oligo remaining", "setting": "[1]", "value": "<1", "unit": "%"}, {"measurement": "IC50", "setting": "[2]", "value": 0.097, "unit": "nM"}, {"measurement": "IC50", "setting": "[3]", "value": 0.053, "unit": "nM"}, {"measurement": "IC50", "setting": "[4]", "value": 0.56, "unit": "nM"}, {"measurement": "IC50", "setting": "[5]", "value": 0.028, "unit": "nM"}, {"measurement": "IC50", "setting": "[6]", "value": 0.15, "unit": "nM"}, {"measurement": "IC50", "setting": "[7]", "value": 0.015, "unit": "nM"}, {"measurement": "IC50", "setting": "[8]", "value": 0.078, "unit": "nM"}, {"measurement": "IC50", "setting": "[9]", "value": 0.032, "unit": "nM"}, {"measurement": "IC50", "setting": "[10]", "value": 0.011, "unit": "nM"}, {"measurement": "IC50", "setting": "[11]", "value": 2.09, "unit": "nM"}, {"measurement": "IC50", "setting": "[12]", "value": 0.2, "unit": "nM"}, {"measurement": "IC50", "setting": "[13]", "value": 0.144, "unit": "nM"}, {"measurement": "IC50", "setting": "[14]", "value": 0.061, "unit": "nM"}, {"measurement": "IC50", "setting": "[15]", "value": 0.95, "unit": "nM"}]}, {"compound": "C=C1C[C@H]2CNc3cc(OCCCCCOc4cc5c(cc4OC)C(=O)N4CC(=C)C[C@H]4CN5)c(OC)cc3C(=O)N2C1", "note": "[PBD dimer control 2]", "values": [{"measurement": "% DNA oligo remaining", "setting": "[1]", "value": 100, "unit": "%"}, {"measurement": "IC50", "setting": "[16]", "value": 5.3, "unit": "nM"}, {"measurement": "IC50", "setting": "[17]", "value": "> 100", "unit": "nM"}, {"measurement": "IC50", "setting": "[18]", "value": 15, "unit": "nM"}, {"measurement": "IC50", "setting": "[3]", "value": 67.4, "unit": "nM"}, {"measurement": "IC50", "setting": "[4]", "value": "> 100", "unit": "nM"}, {"measurement": "IC50", "setting": "[19]", "value": 2.4, "unit": "nM"}, {"measurement": "IC50", "setting": "[5]", "value": 10, "unit": "nM"}, {"measurement": "IC50", "setting": "[20]", "value": 73.2, "unit": "nM"}, {"measurement": "IC50", "setting": "[7]", "value": 4.9, "unit": "nM"}, {"measurement": "IC50", "setting": "[21]", "value": 53.7, "unit": "nM"}]}]}
